As a reminder, the melting point is the temperature of the solid-liquid transition.

`CCCCN(CCCC)S(=O)(=O)c1cc(C(=O)CCl)ccc1Cl`: the melting point turned out to be 71 °C.
As to `CN(C)CCn1c(=O)c2ccc(N)cc2c2cnc3cc4c(cc3c21)OCO4`, the melting point was in the range of 300 to 301 °C.
Next, `CCCCc1nc(Cl)c(CNC(=O)c2cc3c(OCC(O)CN(C(=O)OC(C)(C)C)C(C)C)cccc3[nH]2)n1Cc1ccc(-c2ccccc2C(=O)OC)cc1` (centres undefined): 158 to 160 °C; `CCc1nc2c(N)nc3cc(Oc4ccc(C(=O)OC)cn4)ccc3c2s1`: 213 to 214 °C; `CCOC(=O)C1=C(C)OC(=O)C1=C(C)O`: 106 to 108 °C.
Molecule `CC(=O)c1cc2cc(OCCNC[C@H](O)COc3ccccc3)ccc2o1` yielded a melting point of 122 to 123 °C.
Under `CC(=O)N1CCC(CC(=O)O)CC1` stands 124 °C.
`C/C(=C/C(=O)O)c1ccn(-c2c(C)cccc2C)c1` yielded a melting point of 78 to 80 °C.
In turn, `CC(=O)SCC(C)C(=O)N1C(C(=O)O)CC2CCCCC21` (centres undefined) displayed a melting point of 152 to 154 °C.
Next, `CCOCCn1c(NC2CCN(CCC3(c4ccccc4)CCN(C(=O)c4cc(OC)c(OC)c(OC)c4)C3)CC2)nc2ccccc21` (single isomer, unassigned; (-)): 106 to 117 °C.
Under `O=C(Cc1ccccc1)c1cc2c(c(Cl)c1Cl)OC(C(=O)O)C2` (centres undefined) stands 146 °C; under `Cc1ccc(-c2coc3c(C)c(C)cc(C)c23)nc1`, 134 to 135 °C; under `CCCn1c(I)c2c3c(cccc31)C1CC(NC(=O)N(CC)CC)CN(C)C1C2` (centres undefined), 114 to 117 °C.
Next, `CC1(C)Cc2cccc(Oc3ccc(NC(=O)NC(=O)c4c(F)cccc4F)cc3Cl)c2O1`: 171 °C; `O=COCc1cc2c3ccccc3[nH]c(=O)n2n1`: 190 to 192 °C; `CCOC(=O)C=C(C)NC(=O)OCc1ccc(Cl)c(Cl)c1`: 83.5 to 85 °C.
`COC(=O)C1(C(F)F)c2ccccc2Oc2ccccc21`: the melting point was 101 °C.
As for `Cc1ccc(C(=O)c2cc(-c3cccnc3)c(N3CCOCC3)s2)cc1`, the melting point worked out at 134 °C.
Under `OC1c2ccccc2CSc2ccc(Br)cc21` (centres undefined) stands 169 to 170 °C; under `CCCCc1nc(S(=O)c2ccccc2)c(C(=O)O)n1Cc1ccc(-c2ccccc2C(=O)O)cc1` (centres undefined), 195 °C.
`CS(=O)c1cccc(-n2cnc(-c3ccc(F)cc3)c2-c2ccncc2)c1` (centres undefined) returned a melting point of 233 to 234 °C.
Under `C=CCc1cc2c(C)cc(=O)oc2c(C)c1O` stands 166 to 167 °C; under `CON=Cc1ccc(-c2cc(F)cc(F)c2NC(=O)c2c(C)nn(C)c2F)cc1`, 164 to 167 °C; under `CC(=O)OC(Cn1cncn1)(CC(Cl)(Cl)Cl)c1ccc(Cl)cc1` (centres undefined), 112 to 114 °C.
In the case of `O=S(=O)(c1ccc(Cl)cc1)c1ccc(-c2ccccc2)cc1`, the melting point turned out to be 169 °C.
Molecule `COc1ccc(-c2cc(COS(C)(=O)=O)c(=O)n(CCCc3ccc(F)cc3)n2)cc1F` displayed a melting point of 112 to 116 °C.
Under `COc1ccc(C(=O)Nc2ccccc2)cc1NCc1cccc(F)c1F` stands 134 to 135 °C; under `CON(C)Cc1nc2c(N)nc3cc(-c4cccnc4)cnc3c2n1CC(C)(C)O`, 187 to 189 °C.
For `C#CCN(Cc1cc2c(=O)[nH]c(C)nc2cc1Br)c1ccc(C(=O)NC(CO)c2cccc([N+](=O)[O-])c2)cc1` (centres undefined), the melting point lay in the range of 221 to 232 °C.
For the molecule `Nc1nc(-c2cc(Cl)ccc2Cl)nc(N2CCC(=O)CC2)n1`, the melting point fell in the range of 223 to 225 °C.
Under `c1ccc(CCNc2nccc3ccccc23)cc1` stands 110 to 112 °C; under `Cc1oc(-c2ccc(C(F)(F)F)cc2)cc1C(=O)Nc1cccc(CCC(=O)O)c1`, 200 to 201 °C; under `Nc1ncnc2c1c(-c1cccc(O)c1)cn2-c1cccc(OCCCn2ccnc2)c1`, 120 to 122 °C.
Next, `CC(=O)N1CCc2ccc(N)cc2C1`: 98 to 100 °C; `COC(=O)Cc1cc(Br)c(S)c(Br)c1`: 63.5 to 65 °C.
Molecule `O=C(NCCN1CCOCC1)c1ccc(Cl)cc1` displayed a melting point of 120 to 121 °C.
Under `CN(c1ncccc1C#N)C1CCN(Cc2ccccc2)CC1` stands 58 to 60 °C.
`OCc1csc(N2CCCC2)n1` had a melting point of 146 to 148 °C.
`CNC(=NCCS(=O)Cc1[nH]cnc1C)NC#N` (centres undefined) showed a melting point of 185 to 186 °C.
Next, `Cc1ccc2c(N)c3c(nc2c1)CCSC3`: 239 to 245 °C.
Consider `COc1ccccc1-n1c(=O)[nH]c2c(C(N)=O)nc(-c3cccc([N+](=O)[O-])c3)nc21`, for which the melting point lay in the range of 295 to 296 °C.
Next, `NS(=O)(=O)c1ccc(-c2cc(F)c(F)cc2-c2ccc3c(c2)OCCO3)cc1`: 107 to 108 °C; `C=C1CCc2c(N3CCC(O)C3)c(F)cc3c(=O)c(C(=O)O)cn1c23` (centres undefined): 190 to 196 °C; `CCOC1=CCC(NC(C)=O)CC1` (centres undefined): 100 to 102 °C.
Under `COc1ccc(N2C(=O)Cc3ccccc32)cc1F` stands 133 to 136 °C; under `CN1CCC2(C)c3cc(O)cc([N+](=O)[O-])c3N(C)C12` (centres undefined), 170 to 171 °C; under `FC(F)(F)c1cccc(CSc2nnc(-c3ccc4ncsc4c3)o2)c1`, 112 to 113 °C.
On to `Cc1c(C(=O)Nc2cc(Cl)c(N3CCC(N4CCOCC4)CC3)c(Cl)c2)cnn1-c1ccc(C(F)(F)F)cc1`, for which the melting point lay in the range of 252 to 254 °C.
Turning to `CN1C(=O)C(c2ccc(OC(F)(F)F)c(F)c2)(c2ccc(F)c(-c3cncnc3)c2)N=C1N` (centres undefined), the melting point is 102 to 110 °C.
Next, `O=c1[nH]cnc2cccc(Br)c12`: 239 to 240 °C; `OC(CCN1CCN(c2cccc(C(F)(F)F)c2)CC1)COc1ccccc1` (centres undefined): 83 to 84 °C.
Turning to `O=C(O)c1ccc(COCc2csc3nc(C(=O)NCc4cccc(C(F)(F)F)c4)[nH]c(=O)c23)cc1`, the melting point was in the range of 261 to 263 °C.
`COC(=O)c1cc(N(C)C)c(C(C)(C)C)c(N(C)C)c1` yielded a melting point of 80 to 82 °C.
`C=CCn1c(=O)c2c(nc(/C=C/c3cc(OC)c(O)c(OC)c3)n2C)n(CC=C)c1=O` gave a melting point of 239 to 240 °C.
Under `CCN(CC)CCNC(=O)c1ccc2cc(I)ccc2c1` stands 105 to 107 °C; under `O=C(O)CCCc1cc2cc(Cl)ccc2n1S(=O)(=O)c1ccc2c(c1)OCCO2`, 131 to 134 °C; under `CCCN(Cc1ccccc1C(=O)O)c1ccc(CC(=O)O)cc1`, 163 °C.
For `COc1ccccc1Oc1c(N)nc(-c2ncccn2)nc1OCCOc1ncc(Br)cn1`, the melting point lay in the range of 124 to 128 °C.
For the molecule `CCC12CCC3c4ccc(OC)cc4CCC3C1CCC2OCCO` (centres undefined), the melting point fell in the range of 131 to 132 °C.
Next, `CN(C)CCCOc1ccc(C(=O)NN)cc1F`: 109 to 111 °C; `CCOc1nn(C(=O)NS(=O)(=O)c2ccccc2N2CCCC2)c(=O)n1C`: 68 °C.
Under `Cc1cc(OCCCCl)c(C)c(C)c1OCCCCl` stands 143 °C; under `N#Cc1ccc2c(c1)S(=O)c1ccc(F)cc1C=C2` (centres undefined), 240 to 243 °C.
`Cn1ncc2nn(-c3cc(C(F)(F)F)ccc3F)c(=O)cc21` came in with a melting point of 190 to 195 °C.

Source of the values: a melting point compilation (Tetko et al.; mined from patent text by program, amines drawn as free bases though some values may be those of a salt).
